Data taken from patent publication US20250387375A1, “SOFALCONE DERIVATIVES AND MEDICAL USE THEREOF” (KAOHSIUNG MEDICAL UNIVERSITY, priority 2024, published 2025).
pIC50: −log10 of the molar value.

Key:
[1] = test system: human platelet suspension (platelet aggregation caused by TxA2 agonist U46619); assay: Platelet aggregation reaction test, U46619-induced; format: cell-based
Description: (§1) Blood samples were collected from healthy donors, and acid-citrate-dextrose (ACD) solution was used as an anticoagulant. The blood samples were centrifuged to obtain platelets, and residual plasma was removed by washing to prepare platelet suspension.
(§2) In the experimental method, a platelet aggregometer (Chrono-Log Co., Havertown, PA, USA) was used for tests. The compound to be tested was added to the platelet suspension and reacted for 3 minutes at 37° C. with stirring (1200 rpm). Then, platelet stimulator U46619 or collagen was added to initiate platelet aggregation, and the test time was 5 minutes. The principle of the platelet aggregation test was: when platelets were stimulated to induce aggregation reaction, the light transmission of the platelet suspension would increase; by calculating changes in light transmission of the platelet suspension before and after being stimulated, the percentage of platelet aggregation could be obtained.

human recombinant COX1 = molecular target: T1, human recombinant COX1 (Homo sapiens, UniProt P23219); assay: COX1 enzyme activity assay; format: biochemical
T1 construct: purchased Cayman Chemical Company
Description: (§3) COX1 and COX2 enzyme activities were analyzed by using a human COX inhibitor screening assay kit (Cayman Chemical Company). After allowing the to-be-tested compound, human recombinant COX1 or COX2 enzyme and heme to stand at 37° C. for 15 minutes, AA (10 μM) was added to react for 2 minutes. Then, stannous chloride was added to reduce PGH2, the product of the above COX reaction, to PGF2α. Finally, the PGF2α level in the sample was measured by using enzyme immunoassay, and the inhibition percentage was calculated.

[2] = test system: normal hemostatic function (tail bleeding); assay: Mouse bleeding test (tail bleeding time); format: in vivo, BALB/c mice
Description: Mice were orally administered by gavage with sofalcone (SFC, once daily for 4 days), derivative 17, or aspirin (ASA) (single administration only). Then the mouse's tail was transected and the tail bleeding time was recorded. Data are presented as mean±standard error of the mean (n≥6). Compared with the control group, ***P<0.001. n.s.: No significant difference. In the present invention, the effect of the to-be-tested compound on normal hemostasis was evaluated by docking off the tail ends of the mice to cause bleeding. The to-be-tested compound was orally administered to BALB/c mice aged approximately 6-8 weeks by gavage. Then, the mice were anesthetized with isoflurane, and 2 mm of the distal end of their tails were excised. The tails of the mice were immersed in physiological saline at 37° C., and the bleeding time was observed. The determination of bleeding time was: the time required from the time the mouse tail was cut off until the bleeding completely stopped.

[3] = test system: PGE2 formation in human platelet suspensions; assay: Measurement of platelet PGE2 level after arachidonic acid; format: cell-based; details: AA 100 μM; human platelet suspension
Description: (§4) FIGS. 6A and 6B show the effect of sofalcone and its derivatives on TxB2 and PGE2 productions induced by arachidonic acid (AA). […] After human platelet suspension was pretreated with dimethyl sulfoxide (DMSO) or sofalcone (SFC), sofalcone derivative 3, and sofalcone derivative 30, arachidonic acid (100 μM) was added to stimulate the productions of arachidonic acid metabolites TxB2 and PGE2. Data are presented as mean±standard error of the mean (n>5). Compared with the control group, *P<0.05, **P<0.01, ***P<0.001. ASA: Aspirin.
as §1
(§5) The compound to be tested was added to the platelet suspension and reacted for 3 minutes at 37° C. under stirring (1200 rpm), then arachidonic acid (AA) (100 μM) was added to react for 4 minutes, and finally EDTA (5 mM) was added to terminate the reaction. The above sample was centrifuged at 13,000 rpm for 1 minute at 4° C. and the supernatant was collected. The concentrations of TxB2 and PGE2 in the supernatant were measured respectively using enzyme immunoassay kits (TxB2 ELISA kit and PGE2 ELISA kit; Cayman Chemical Company).

[4] = test system: FeCl3-induced carotid artery thrombosis; assay: Ferric chloride-induced carotid artery thrombosis in mice; format: in vivo, BALB/c mice; details: oral gavage
Description: Mice were orally administered by gavage with sofalcone (SFC, once daily for 4 days), derivative 17, or aspirin (ASA) (single administration only). The mice are then treated with ferric chloride solution to induce carotid artery thrombosis, and an ultrasound imaging system was used to monitor the time required for the thrombus to block the carotid artery (occlusion time). Data are presented as mean±standard […] error of the mean (n≥6). Compared with the control group, *P<0.05, ***P<0.001. In this experiment, a ferric chloride-induced arterial injury was used to evaluate the antithrombotic effect of the to-be-tested compound. The to-be-tested compound was orally administered by gavage to BALB/c mice aged approximately 6-8 weeks. Then, the mice were anesthetized with isoflurane, the right carotid artery was exposed through surgery, and filter paper (2×4 mm^2) containing 8.5% ferric chloride was attached to the right carotid artery for 3 minutes. After removing the filter paper, remaining ferric chloride was wiped off with cotton balls soaked with physiological saline, and an ultrasonic imaging system (VEVO 2100 system, VisualSonics) equipped with a Doppler flow probe (MS400, 18-38 MHz) was used to monitor the blood flow of the right carotid artery. The occlusion time was determined when the blood flow completely stopped for at least 1 minute. If the occlusion time was longer than 30 minutes, it was considered the end point of the experiment.

[5] = test system: human platelet suspension (platelet aggregation caused by collagen); assay: Platelet aggregation reaction test, collagen-induced; format: cell-based; details: read-out: Collagen IC 50
Description: as §1, §2

[6] = test system: TxB2 formation in human platelet suspensions; assay: Measurement of platelet TxB2 level after arachidonic acid; format: cell-based; details: AA 100 μM; human platelet suspension
Description: as §4, §1, §5

TxA2 receptor = molecular target: T2, TxA2 receptor (Homo sapiens, UniProt P21731); assay: Competitive antagonism of U46619-induced platelet aggregation (U46619 concentration-response curves); format: cell-based; details: for mode of action at TxA2 receptor: concluded from parallel right shift of U46619 curves; for U46619 concentration-platelet aggregation response curve / maximum level of platelet aggregation: U46619 0.1-10 μM
T2 construct: The blood samples were centrifuged to obtain platelets, and residual plasma was removed by washing to prepare platelet suspension; endogenous in cells; host or cells: washed human platelets from healthy donors
T2 sequence (P21731 1-343): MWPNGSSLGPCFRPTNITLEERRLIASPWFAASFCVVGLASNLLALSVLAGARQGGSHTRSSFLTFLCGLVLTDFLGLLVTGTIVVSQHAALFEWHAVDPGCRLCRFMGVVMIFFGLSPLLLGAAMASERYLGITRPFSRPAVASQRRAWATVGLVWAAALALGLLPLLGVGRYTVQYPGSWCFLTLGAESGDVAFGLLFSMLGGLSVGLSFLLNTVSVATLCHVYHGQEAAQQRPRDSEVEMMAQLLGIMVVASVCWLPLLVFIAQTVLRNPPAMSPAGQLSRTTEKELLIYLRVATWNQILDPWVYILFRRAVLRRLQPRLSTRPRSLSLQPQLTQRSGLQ
Description: After human platelet suspension was pretreated with dimethyl sulfoxide (DMSO) or sofalcone (SFC) (FIG. 5A), sofalcone derivative 3 (FIG. 5B), and sofalcone derivative 30 (FIG. 5C), different concentrations of U46619 (0.1-10 μM) were added to stimulate platelet aggregation reaction. Data are presented as mean±standard error of the mean (n=5).
as §1, §2
After pretreating human platelet suspensions with dimethylsulfoxide (DMSO), sofalcone (20 μM and 50 μM), and sofalcone derivatives 3 or 30 (0.2 μM and 0.5 μM, respectively), different concentrations of U46619 (0.1-10 μM) were added to stimulate platelet aggregation.

human recombinant COX2 = molecular target: T3, human recombinant COX2 (Homo sapiens, UniProt P35354); assay: COX2 enzyme activity assay; format: biochemical
T3 construct: purchased Cayman Chemical Company
T3 sequence (P35354 18-604): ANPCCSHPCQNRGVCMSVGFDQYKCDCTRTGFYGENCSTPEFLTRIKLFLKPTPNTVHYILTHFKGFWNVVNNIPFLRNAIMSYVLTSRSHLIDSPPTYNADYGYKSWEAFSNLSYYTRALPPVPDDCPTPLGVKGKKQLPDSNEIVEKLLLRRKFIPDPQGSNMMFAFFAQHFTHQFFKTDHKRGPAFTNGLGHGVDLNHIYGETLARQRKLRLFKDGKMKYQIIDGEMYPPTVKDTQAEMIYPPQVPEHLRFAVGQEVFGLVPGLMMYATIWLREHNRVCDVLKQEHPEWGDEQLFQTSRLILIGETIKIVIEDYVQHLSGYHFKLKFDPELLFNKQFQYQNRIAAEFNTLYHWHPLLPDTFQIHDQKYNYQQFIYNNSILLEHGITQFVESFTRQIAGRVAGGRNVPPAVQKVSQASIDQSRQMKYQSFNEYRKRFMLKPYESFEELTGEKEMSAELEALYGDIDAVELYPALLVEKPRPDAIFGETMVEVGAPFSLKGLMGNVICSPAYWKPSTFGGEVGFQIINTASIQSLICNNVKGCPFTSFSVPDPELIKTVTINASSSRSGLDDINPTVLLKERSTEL
Description: as §3

T1 sequence (P23219 24-599): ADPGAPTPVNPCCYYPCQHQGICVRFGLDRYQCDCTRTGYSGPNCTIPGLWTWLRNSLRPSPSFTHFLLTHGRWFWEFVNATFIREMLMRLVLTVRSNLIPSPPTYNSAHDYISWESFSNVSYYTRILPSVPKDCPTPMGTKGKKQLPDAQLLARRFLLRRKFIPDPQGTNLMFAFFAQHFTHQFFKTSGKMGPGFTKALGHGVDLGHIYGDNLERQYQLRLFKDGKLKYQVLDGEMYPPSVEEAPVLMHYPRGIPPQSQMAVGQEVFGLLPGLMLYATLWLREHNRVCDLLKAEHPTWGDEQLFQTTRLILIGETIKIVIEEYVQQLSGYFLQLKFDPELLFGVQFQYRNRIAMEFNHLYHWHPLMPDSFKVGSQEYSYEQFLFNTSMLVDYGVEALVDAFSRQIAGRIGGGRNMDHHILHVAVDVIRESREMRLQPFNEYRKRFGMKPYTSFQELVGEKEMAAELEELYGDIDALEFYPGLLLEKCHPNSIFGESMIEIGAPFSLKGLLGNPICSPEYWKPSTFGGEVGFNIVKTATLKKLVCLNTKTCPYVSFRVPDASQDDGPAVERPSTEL

Compound	pIC50 [1]	formation of PGE2 induced by arachidonic acid [3]	carotid artery occlusion time ([4]; single dose 25 mg/kg)	pIC50 [5]	formation of TxB2 induced by arachidonic acid [6]	mode of action at TxA2 receptor (TxA2 receptor)	U46619 concentration-platelet aggregation response curve (TxA2 receptor; pretreatment 0.2 μM and 0.5 μM)	maximum level of platelet aggregation (TxA2 receptor; pretreatment 0.2 μM and 0.5 μM)	also measured
CC(=O)Oc1ccccc1C(=O)O [Aspirin, reference compound]	< 3.70	inhibited	prolonged	4.10	inhibited				inhibition at 200 µM (human recombinant COX1; read-out: COX1 (Inhibition rate %)): 26%; tail bleeding time ([2]; mice, oral gavage, single dose 25 mg/kg): significantly prolonged
CC(C)=CCOc1ccc(/C=C/C(=O)c2ccc(OCC=C(C)C)cc2OCCCC(=O)[O-])cc1.[K+] [Compound 17]	7.40		significantly prolonged	6.49					tail bleeding time ([2]; mouse, in vivo, po, 10 mg/kg): did not affect; tail bleeding time ([2]; mouse, in vivo, po, 25 mg/kg): did not affect; carotid artery occlusion time ([4]; single dose 10 mg/kg): significantly prolonged
CC(C)=CCOc1ccc(/C=C/C(=O)c2ccc(OCC=C(C)C)cc2OCCCC(=O)O)cc1 [Compound 30]	7.40	did not inhibit		6.42	did not inhibit	competitively antagonize	shifted parallelly to the right	not significantly affected	
O=C(O)CCCOc1ccccc1C(=O)/C=C/c1ccc(F)cc1 [Compound 3]	7.15	inhibited		7.52	inhibited	competitively antagonize	shifted parallelly to the right	not significantly affected	COX1 (Inhibition rate %) (human recombinant COX1; 1 μM): 19.1%; COX1 (Inhibition rate %) (human recombinant COX1; 10 μM): 61.6%; COX1 (Inhibition rate %) (human recombinant COX1; 100 μM): 89.8%; COX1 versus COX2 inhibitory effect (human recombinant COX1; human recombinant COX1 and COX2, 1-100 μM): better inhibitory effect on COX1; COX2 (Inhibition rate %) (human recombinant COX2; 10 μM): 26.7%; COX2 (Inhibition rate %) (human recombinant COX2; 100 μM): 48.6%
CC(C)=CCOc1ccc(/C=C/C(=O)c2ccc(OCC=C(C)C)cc2OCC(=O)O)cc1 [SFC, sofalcone]	4.80	did not inhibit		4.31	did not inhibit	competitively antagonize			tail bleeding time ([2]; mice, oral gavage, 50 mg/kg per day for 4 days): did not affect; U46619 concentration-platelet aggregation response curve (TxA2 receptor; pretreatment 20 μM and 50 μM): shifted parallelly to the right; maximum level of platelet aggregation (TxA2 receptor; pretreatment 20 μM and 50 μM): not significantly affected; carotid artery occlusion time ([4]; 50 mg/kg per day for 4 days): significantly prolonged
